Measured values from PubChem BioAssay AID330 (DTP/NCI, 2004).
“And” between values parts separate entries of the source, which are not always exact repeats. Identical values can stand only once. Toxic doses and inconclusive results are not listed. The calls were made as follows: active = survival T/C of 150% or more; inactive = T/C below 125% in these data.

Tested on: P388 leukemia ip, CD2F1 mice, survival T/C
Experiment: NCI In Vivo Anticancer Drug Screen. Data for tumor model P388 Leukemia (intraperitoneal) in CD2F1 (CDF1) mice
Conditions: endpoint: median survival time, higher = longer survival
Outline: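 Mice carrying the transplanted tumor received test compound or vehicle. Survival was recorded in each group, and the value is the treated-group measurement divided by that of the vehicle-treated control group.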

[1] = dose: 50.0 mg/kg/injection, schedule: Q01DX005 (ip), vehicle: saline with Tween-80
[2] = dose: 100.0 mg/kg/injection, schedule: Q01DX005 (ip), vehicle: saline with Tween-80
[3] = dose: 200.0 mg/kg/injection, schedule: Q01DX005 (ip), vehicle: saline with Tween-80
[4] = dose: 50.0 mg/kg/injection, schedule: Q01DX005 (ip), vehicle: Klucel (hydroxypropylcellulose) (HPC)
[5] = dose: 100.0 mg/kg/injection, schedule: Q01DX005 (ip), vehicle: Klucel (hydroxypropylcellulose) (HPC)
[6] = dose: 200.0 mg/kg/injection, schedule: Q01DX005 (ip), vehicle: Klucel (hydroxypropylcellulose) (HPC)
[7] = dose: 50.0 mg/kg/injection, schedule: Q01DX009 (ip), vehicle: saline with Tween-80
[8] = dose: 100.0 mg/kg/injection, schedule: Q01DX009 (ip), vehicle: saline with Tween-80
[9] = dose: 200.0 mg/kg/injection, schedule: Q01DX009 (ip), vehicle: saline with Tween-80
[10] = dose: 50.0 mg/kg/injection, schedule: Q01DX005 (ip), vehicle: saline
[11] = dose: 100.0 mg/kg/injection, schedule: Q01DX005 (ip), vehicle: saline
[12] = dose: 100.0 mg/kg/injection, schedule: Q04DX003 (ip), vehicle: saline
[13] = dose: 60.0 mg/kg/injection, schedule: Q01DX005 (ip), vehicle: saline with Tween-80
[14] = dose: 120.0 mg/kg/injection, schedule: Q01DX005 (ip), vehicle: saline with Tween-80
[15] = dose: 240.0 mg/kg/injection, schedule: Q01DX005 (ip), vehicle: saline with Tween-80

Measured: T/C

O=C(NCCCNC(=O)C12CC3CC(CC(C3)C1)C2)C12CC3CC(CC(C3)C1)C2
inactive: [1] 98 % of control | [2] 92 % of control | [3] 100 % of control

[Co].[NH-]CC[NH-].[NH-]CC[NH-].[NH-]CC[NH-]
inactive: dose: 25.0 mg/kg/injection, schedule: Q01DX009 (ip), vehicle: saline 100 % of control | dose: 50.0 mg/kg/injection, schedule: Q01DX009 (ip), vehicle: saline 111 % of control | dose: 50.0 mg/kg/injection, schedule: Q04DX002 (ip), vehicle: saline with Tween-80 100 % of control | dose: 100.0 mg/kg/injection, schedule: Q01DX009 (ip), vehicle: saline 105 % of control | dose: 100.0 mg/kg/injection, schedule: Q04DX002 (ip), vehicle: saline with Tween-80 102 % of control | dose: 200.0 mg/kg/injection, schedule: Q04DX002 (ip), vehicle: saline with Tween-80 106 % of control

CCCCC(CCCC)[N+](=O)[O-]
inactive: [1] 108 % of control | [2] 110 % of control | [3] 103 % of control

Cc1cc2ccc(OC(=O)c3ccc(N=C(N)N)cc3)cc2oc1=O
inactive: dose: 100.0 mg/kg/injection, schedule: Q04DX003 (ip), vehicle: saline with Tween-80 100 % of control | dose: 200.0 mg/kg/injection, schedule: Q04DX003 (ip), vehicle: saline with Tween-80 91 % of control | dose: 400.0 mg/kg/injection, schedule: Q04DX003 (ip), vehicle: saline with Tween-80 87 % of control

CCn1c2ccc(C=O)cc2c2cc([N+](=O)[O-])ccc21
inactive: [4] 92 % of control | [5] 86 % of control | [6] 86 % of control

CCOc1cccc(/C=N/n2c(-c3ccccc3)nc3ccccc3c2=O)c1O
inactive: [7] 99 % of control | [8] 96 % of control | [9] 105 % of control

CCN(CC)Cc1c(O)ccc(C(C)=O)c1O
inactive: [10] 89 % of control | [11] 100 % of control

COCC1(C)CCCC2(C)C3=C(CCC(O)C3)CCC12 (centres undefined)
inactive: [12] 99 % of control | dose: 200.0 mg/kg/injection, schedule: Q04DX003 (ip), vehicle: saline 99 % of control | dose: 400.0 mg/kg/injection, schedule: Q04DX003 (ip), vehicle: saline 97 % of control

CC(O)C1CCNCC1 (centres undefined)
inactive: [10] 102 % of control | [11] 97 % of control

CC(/C=C(\C)N1CCCC1)=[N+]1CCCC1
inactive: dose: 0.12 mg/kg/injection, schedule: Q01DX009 (ip), vehicle: saline 111 % of control | dose: 0.25 mg/kg/injection, schedule: Q01DX009 (ip), vehicle: saline 111 % of control | dose: 0.5 mg/kg/injection, schedule: Q01DX009 (ip), vehicle: saline 108 % of control | dose: 1.0 mg/kg/injection, schedule: Q01DX009 (ip), vehicle: saline 109 % of control | dose: 2.0 mg/kg/injection, schedule: Q01DX009 (ip), vehicle: saline 109 % of control

CC1=C(O)C(=O)C=C2C1=CC=C1[C@@]2(C)CC[C@@]2(C)[C@@H]3C[C@](C)(C(=O)O)CC[C@]3(C)CC[C@]12C
inactive: dose: 0.19 mg/kg/injection, schedule: Q01DX009 (ip), vehicle: saline 101 % of control | dose: 0.39 mg/kg/injection, schedule: Q01DX009 (ip), vehicle: saline 101 % of control | dose: 0.78 mg/kg/injection, schedule: Q01DX009 (ip), vehicle: saline 97 % of control | dose: 1.56 mg/kg/injection, schedule: Q01DX009 (ip), vehicle: saline 87 % of control | dose: 3.12 mg/kg/injection, schedule: Q01DX009 (ip), vehicle: suspension in saline 91 % of control

CCOC(=O)C1CCC(=O)N1Cc1c[nH]c2ccccc12 (centres undefined)
inactive: [13] 92 % of control | [14] 94 % of control | [15] 94 % of control

CC1(C)C(=S)C(C)(C)C1=S
inactive: [4] 104 % of control | [5] 104 % of control | [6] 108 % of control

Cc1cc(O)c(NCCN(C)C)c2c(=O)c3ccccc3sc12
inactive: [7] 100 % of control | [8] 101 % of control | [9] 100 % of control

CN1[C@H]2C=CC(=O)[C@]1(Cl)[C@H]1C(=O)N(c3ccccc3)C(=O)[C@@H]21
inactive: dose: 25.0 mg/kg/injection, schedule: Q01DX005 (ip), vehicle: saline with Tween-80 106 % of control | [1] 109 % of control | [2] 105 % of control | [3] 118 % of control

Nc1ncnc2c1ncn2C1OC(COC2C(O)C(OC3OC(CO)C(O)C(O)C3N)C(O)C(OS(=O)(=O)O)C2OC(=O)[C@@H](N)CO)C(O)C1O (some centres undefined)
inactive: dose: 0.15 mg/kg/injection, schedule: Q01DX005 (ip), vehicle: Klucel (hydroxypropylcellulose) (HPC) 101 % of control | dose: 0.31 mg/kg/injection, schedule: Q01DX005 (ip), vehicle: Klucel (hydroxypropylcellulose) (HPC) 98 % of control | dose: 0.62 mg/kg/injection, schedule: Q01DX005 (ip), vehicle: Klucel (hydroxypropylcellulose) (HPC) 100 % of control | dose: 1.25 mg/kg/injection, schedule: Q01DX005 (ip), vehicle: Klucel (hydroxypropylcellulose) (HPC) 100 % of control and 94 % of control

Nc1nccc(CCc2ccccc2)n1
inactive: [13] 101 % of control | [14] 95 % of control

CCOC(=O)C(CCBr)SC (centres undefined)
inactive: dose: 25.0 mg/kg/injection, schedule: Q01DX009 (ip), vehicle: saline with Tween-80 99 % of control | [7] 100 % of control | [8] 99 % of control

O=C1CSCc2sccc21
inactive: [13] 94 % of control | [14] 106 % of control | [15] 101 % of control

CC1(C)N=C(N)N=C(N)N1c1ccc(Cl)cc1
inactive: dose: 12.5 mg/kg/injection, schedule: Q01DX005 (ip), vehicle: saline 103 % of control | dose: 25.0 mg/kg/injection, schedule: Q01DX005 (ip), vehicle: saline 117 % of control | [10] 124 % of control

CCN(CC)C(=O)N1C=CC(c2ccccc2)C=C1
inactive: [13] 103 % of control | [14] 106 % of control | [15] 108 % of control

C=C1C(C(=O)OC)=NNc2c(C(N)=O)ncn21
inactive: dose: 25.0 mg/kg/injection, schedule: Q01DX001 (ip), vehicle: saline 101 % of control | dose: 50.0 mg/kg/injection, schedule: Q01DX001 (ip), vehicle: saline 102 % of control | dose: 100.0 mg/kg/injection, schedule: Q01DX001 (ip), vehicle: Klucel (hydroxypropylcellulose) (HPC) 98 % of control | dose: 200.0 mg/kg/injection, schedule: Q01DX001 (ip), vehicle: Klucel (hydroxypropylcellulose) (HPC) 105 % of control | dose: 400.0 mg/kg/injection, schedule: Q01DX001 (ip), vehicle: saline 100 % of control

CCN(CC)CCN1CC(=O)N2CCCCN2C(=O)C1
inactive: [10] 104 % of control | [11] 102 % of control | dose: 200.0 mg/kg/injection, schedule: Q01DX005 (ip), vehicle: saline 95 % of control

O=C(/C=C/c1cccc(Cl)c1)c1ccc(Cl)cc1
inactive: dose: 30.0 mg/kg/injection, schedule: Q01DX005 (ip), vehicle: saline with Tween-80 102 % of control | [13] 100 % of control | [14] 100 % of control | [15] 110 % of control

CCOC(=O)/C(=C/c1ncnc2nc[nH]c12)C(F)(F)C(=O)OCC
inactive: dose: 25.0 mg/kg/injection, schedule: Q04DX003 (ip), vehicle: saline 97 % of control | dose: 50.0 mg/kg/injection, schedule: Q04DX003 (ip), vehicle: saline 100 % of control | [12] 99 % of control
